Test results published in patent publication US11453640B2, “Small molecules for disrupting the super elongation complex and inhibiting transcription elongation for cancer therapy” (NORTHWESTERN UNIVERSITY, priority 2018, dated 2022).

Experiments:
[1] = tested on: Tat-induced HIV genome activation in J-Lat 6.3 cells; test: Tat-induced HIV genome activation in J-Lat 6.3 cells (GFP, FACS); type: cell-based, human; conditions: 20 μM, 10 nM PMA, 17 hr
Procedure: FIG. 12, related to FIG. 5. SEC inhibitors block transcription elongation in SEC-dependent rapid response models. […] (B) Gene Ontology analysis of the 136 identified heat shock-induced genes in HCT-116 cells. (C) Workflow of Tat-induced HIV genome activation in J-Lat 6.3 cells. J-Lat 6.3 cells contain an integrated copy of the HIV genome that has GFP replacing HIV nef and could be activated by Phorbol-12-Myristate-13-Acetate (PMA). J-Lat 6.3 cells were treated with vehicle or 20 μM SEC inhibitor along with PMA to activate the HIV genome transcription, which could be monitored by flow cytometry analysis. (D-E) SEC inhibitors block Tat-induced HIV genome activation in J-Lat 6.3 cells. (D) FACS analysis of J-Lat 6.3 cells treated with 10 nM PMA and SEC inhibitors for 17 hr. […] Unpaired two-way ANOVA was used to compare the groups between DMSO and SEC inhibitors. ***, p<0.001. Data are represented as Mean+/−SD. […]
Induction of J-Lat 6.3 Cells. […] Cells were washed in PBS and GFP fluorescence was measured with a FACSVantage instrument (Becton Dickinson, San Jose, Calif.). […] A two-parameter analysis to distinguish GFP-derived fluorescence from background fluorescence was used: GFP was measured in FL1 and cellular autofluorescence was monitored in FL2. The percentage of GFP-positive cells was calculated based on live cells (Jordan et al., 2003).

Pol II = Pol II ChIP-seq, promoter-proximal pausing in HEK293T cells; type: cell-based, human
Procedure: FIG. 2. Small molecule disruption of SEC increases promoter-proximal pausing. (A) SEC inhibitors increase Pol II occupancy near the transcription start sites (TSS) of the HSPA8 and SRSF4 genes. Pol II ChIP-seq was performed in HEK293T cells with 20 μM SEC inhibitors KL-1 and KL-2 for 6 hr. […] (B) Heatmap analysis of Pol II occupancy at SEC-occupied genes in cells treated with KL-1 and KL-2. SEC inhibition results in increased Pol II occupancy at promoter-proximal regions of genes occupied by SEC. Rows are sorted by Pol II occupancy in the DMSO condition and metaplots of Pol II occupancy are shown at the bottom. Corresponding AFF1 and AFF4 occupancy (rpm) in the vehicle-treated condition is shown. […] The pausing index is calculated based on the ratio of Pol II occupancy around the TSS to Pol II occupancy in the gene body. […]
Chromatin Immunoprecipitation Sequencing. […] ChIP-seq reads were aligned to the Drosophila genome (UCSC dm3) or human genome (UCSC hgl9). Alignments were processed with Bowtie version 1.1.2, allowing only uniquely mapping reads with up to two mismatches within the 50 bp read. The resulting reads were extended to 150 bp toward the interior of the sequenced fragment and normalized to total reads aligned (reads per million, r.p.m.). […] P-values were calculated with a two-sided Kolmogorov-Smirnov test. […]

## COc1cccc(C(=O)CC(=O)C(=O)Nc2cc(Cl)ccc2C)c1 [KL-1, N-(5-chloro-2-methylphenyl)-4-oxo-4-(3-methoxyphenyl)-2-oxobutanamide]
[1]
  GFP expression after PMA induction: strong inhibition of GFP expression
Pol II
  promoter-proximal pausing (pausing index, ECDF): could increase promoter-proximal pausing
Pol II; 20 μM, 6 hr, HSPA8 and SRSF4 loci
  Pol II occupancy at promoter-proximal regions: increased Pol II occupancy at the promoter-proximal regions
